Measurements as given in PMC5927461, “Activation of host transient receptor potential (TRP) channels by praziquantel stereoisomers” (PLoS Neglected Tropical Diseases, 2018).

Assays:
hTRPC3 = target: T1, hTRPC3 (Homo sapiens, UniProt Q13507); test: TRP channel panel primary screen (membrane potential dye, stable HEK line); assay type: cell-based; settings: 0.3-300μM; effects over the micromolar range
T1 sequence (Q13507 1-921): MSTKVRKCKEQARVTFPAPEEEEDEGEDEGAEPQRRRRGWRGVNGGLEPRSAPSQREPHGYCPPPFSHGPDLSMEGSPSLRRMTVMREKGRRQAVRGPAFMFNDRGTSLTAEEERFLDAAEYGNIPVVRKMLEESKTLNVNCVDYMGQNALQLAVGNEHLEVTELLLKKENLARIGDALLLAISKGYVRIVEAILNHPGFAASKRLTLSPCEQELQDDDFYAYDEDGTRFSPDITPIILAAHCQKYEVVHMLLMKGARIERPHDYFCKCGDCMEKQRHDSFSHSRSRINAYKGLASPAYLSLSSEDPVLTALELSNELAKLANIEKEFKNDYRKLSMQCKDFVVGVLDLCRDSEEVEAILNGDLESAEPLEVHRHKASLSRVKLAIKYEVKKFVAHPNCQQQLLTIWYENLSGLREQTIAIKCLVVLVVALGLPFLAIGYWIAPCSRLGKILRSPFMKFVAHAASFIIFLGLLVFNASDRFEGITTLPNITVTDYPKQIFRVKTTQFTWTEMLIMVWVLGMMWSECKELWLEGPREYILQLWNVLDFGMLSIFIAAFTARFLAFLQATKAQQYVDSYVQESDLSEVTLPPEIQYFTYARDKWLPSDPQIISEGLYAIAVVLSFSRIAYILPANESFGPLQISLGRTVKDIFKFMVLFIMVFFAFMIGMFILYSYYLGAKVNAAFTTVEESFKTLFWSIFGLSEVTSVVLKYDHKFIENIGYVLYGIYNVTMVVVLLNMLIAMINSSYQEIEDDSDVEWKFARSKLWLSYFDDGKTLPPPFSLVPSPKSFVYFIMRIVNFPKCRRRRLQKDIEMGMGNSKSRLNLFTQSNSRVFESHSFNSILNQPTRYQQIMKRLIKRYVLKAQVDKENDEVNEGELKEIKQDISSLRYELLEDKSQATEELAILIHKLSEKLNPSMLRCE
Experimental: (§1) ±PZQ, (R)-PZQ and (S)-PZQ were screened against a panel of 17 human TRP channels (SB Drug Discovery, Glasgow). For all hTRPs, except for TRPM5, individual channel constructs were stably expressed in HEK cell lines. TRMP5 was expressed in a stable CHO cell line. In preparation for the assays, cells were trypsinized, counted and seeded (50,000 cells/well) in black, clear-bottomed 96 well plates and incubated overnight. The following day, cells were loaded with a fluorescent indicator (FLIPR Calcium 5 Assay kit for TRPA1, TRPV1, TRPV2, TRPV3, TRPV4, TRPV5, TRPC1, TRPM2, TRPM3 and TRPM8, or a membrane potential dye (FLIPR Membrane Potential Red Assay Kit for TRPC3, TRPC4, TRPC5, TRPC6, TRPC7, TRPM4 and TRPM5) prepared according to the manufacturer’s instructions in HEPES buffered Hank’s balanced salt solution (HBSS). Dye solution (10μl) was added to appropriate wells and incubated at 37°C for 1 hour. All assays were performed at room temperature. Compounds were tested at 0.3, 1, 3, 10, 30, 100μM and 300μM in triplicate in both agonist and antagonist mode to determine EC50 and IC50 values, which were compared with reference compounds. Compounds were screened at a final DMSO concentration of 0.5%. Plates were screened using a Flexstation (Molecular Devices, FX01138), monitoring fluorescence values every ~1.52 seconds. For ‘agonist mode’ testing, 10μl of the appropriate test compound, or standard agonist, was added after 20 seconds and fluorescence monitored for 2 minutes at λex = 485nm, λem = 525nm for Ca^2+ imaging and λex = 530nm, λem = 565nm for membrane potential measurements. For ‘antagonist mode’ testing, test compounds and standard inhibitors were added to appropriate wells and incubated for 10 minutes at room temperature prior to addition of standard agonist compound.

hTRPC7 = target: T2, hTRPC7 (Homo sapiens, UniProt Q9HCX4); test: as above; assay type: cell-based; settings: 0.3-300μM; effects over the micromolar range
T2 sequence (Q9HCX4 1-862): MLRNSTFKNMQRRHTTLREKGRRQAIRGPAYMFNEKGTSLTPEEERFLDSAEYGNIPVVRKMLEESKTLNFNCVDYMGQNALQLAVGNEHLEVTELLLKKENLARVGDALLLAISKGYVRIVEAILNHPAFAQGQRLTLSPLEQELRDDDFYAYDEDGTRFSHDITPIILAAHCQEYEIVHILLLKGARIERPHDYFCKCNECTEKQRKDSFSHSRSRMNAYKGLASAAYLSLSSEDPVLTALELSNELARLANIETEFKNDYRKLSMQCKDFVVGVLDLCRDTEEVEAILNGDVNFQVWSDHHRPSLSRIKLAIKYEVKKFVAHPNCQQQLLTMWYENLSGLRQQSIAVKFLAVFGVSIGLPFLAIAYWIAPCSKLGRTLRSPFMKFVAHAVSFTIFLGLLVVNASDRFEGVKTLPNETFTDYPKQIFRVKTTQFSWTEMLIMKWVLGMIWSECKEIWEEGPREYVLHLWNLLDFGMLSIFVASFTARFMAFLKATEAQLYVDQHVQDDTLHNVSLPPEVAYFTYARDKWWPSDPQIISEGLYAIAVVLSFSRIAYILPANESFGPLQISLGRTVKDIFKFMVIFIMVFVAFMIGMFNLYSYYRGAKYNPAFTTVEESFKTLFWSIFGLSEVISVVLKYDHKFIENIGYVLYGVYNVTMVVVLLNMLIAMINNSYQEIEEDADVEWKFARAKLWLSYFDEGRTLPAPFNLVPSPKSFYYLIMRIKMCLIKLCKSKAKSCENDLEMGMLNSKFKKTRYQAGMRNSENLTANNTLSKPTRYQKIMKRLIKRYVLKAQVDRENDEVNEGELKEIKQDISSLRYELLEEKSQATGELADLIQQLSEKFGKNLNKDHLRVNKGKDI
Experimental: as §1

Structure (SMILES) | activity at hTRPC3 in primary screen (hTRPC3) | activity at hTRPC7 in primary screen (hTRPC7)
O=C(C1CCCCC1)N1CC(=O)N2CCc3ccccc3C2C1 (racemic) [±PZQ, praziquantel] | displayed activity | displayed activity
O=C(C1CCCCC1)N1CC(=O)N2CCc3ccccc3[C@H]2C1 [(S)-PZQ] | activated | activated
